Laboratory results from ChEMBL document CHEMBL1201862, “PubChem BioAssay data set” (2004).
Each block holds one compound with its values, some of them ahead of it. Active and inactive are the calls of the source.

How the values were obtained:
[1] = target: Peroxisome proliferator-activated receptor gamma/Nuclear receptor coactivator 2 (Homo sapiens, UniProt P37231); assay: (§1) TR-FRET dose response biochemical High Throughput Screening assay for agonists of the steroid receptor coactivator 2 (SRC-2) recruitment by the peroxisome proliferator-activated receptor gamma (PPAR gamma): non-selective agonists. [Related pubchem assays: 1297, 1032 ]; assay type: functional
[2] = target: Peroxisome proliferator-activated receptor gamma/Nuclear receptor coactivator 1 (Homo sapiens, UniProt P37231); assay: as §1, with “1 (SRC-1)” for “2 (SRC-2)”, “assays (depositor defined):AID1300, AID1808, AID504735, AID631]” for “assays: 1297, 1032 ]”; assay type: protein assay
[3] = target: Peroxisome proliferator-activated receptor gamma/Nuclear receptor coactivator 3 (Homo sapiens, UniProt P37231); assay: as §1, with “3 (SRC-3)” for “2 (SRC-2)”, “1301 (Confirmation screen.), 1048 (Primary screen.)]” for “1297, 1032 ]”; assay type: functional
[4] = target: 26S proteasome non-ATPase regulatory subunit 14 (Homo sapiens, UniProt O00487); assay: inhibition of proteasome subunit RPN11 – biochemical, fluorescence polarization, uHTS hits, confirmation (AID 602368); assay type: functional
Sequence of 26S proteasome non-ATPase regulatory subunit 14 (O00487 whole entry): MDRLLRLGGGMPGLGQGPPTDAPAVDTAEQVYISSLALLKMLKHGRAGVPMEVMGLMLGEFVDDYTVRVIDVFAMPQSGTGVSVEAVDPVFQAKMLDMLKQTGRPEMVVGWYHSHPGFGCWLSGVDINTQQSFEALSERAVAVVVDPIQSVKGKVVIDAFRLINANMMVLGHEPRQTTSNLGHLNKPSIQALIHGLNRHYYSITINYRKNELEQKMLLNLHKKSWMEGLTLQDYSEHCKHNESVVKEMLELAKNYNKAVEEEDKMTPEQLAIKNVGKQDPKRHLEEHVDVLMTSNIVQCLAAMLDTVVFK

[5] = target: 72 kDa type IV collagenase (Homo sapiens, UniProt P08253); assay: Dose Response validation of uHTS RPN11 inhibitor hits using a MMP-2 Fluorescence assay.; assay type: functional
Sequence of 72 kDa type IV collagenase (P08253 whole entry): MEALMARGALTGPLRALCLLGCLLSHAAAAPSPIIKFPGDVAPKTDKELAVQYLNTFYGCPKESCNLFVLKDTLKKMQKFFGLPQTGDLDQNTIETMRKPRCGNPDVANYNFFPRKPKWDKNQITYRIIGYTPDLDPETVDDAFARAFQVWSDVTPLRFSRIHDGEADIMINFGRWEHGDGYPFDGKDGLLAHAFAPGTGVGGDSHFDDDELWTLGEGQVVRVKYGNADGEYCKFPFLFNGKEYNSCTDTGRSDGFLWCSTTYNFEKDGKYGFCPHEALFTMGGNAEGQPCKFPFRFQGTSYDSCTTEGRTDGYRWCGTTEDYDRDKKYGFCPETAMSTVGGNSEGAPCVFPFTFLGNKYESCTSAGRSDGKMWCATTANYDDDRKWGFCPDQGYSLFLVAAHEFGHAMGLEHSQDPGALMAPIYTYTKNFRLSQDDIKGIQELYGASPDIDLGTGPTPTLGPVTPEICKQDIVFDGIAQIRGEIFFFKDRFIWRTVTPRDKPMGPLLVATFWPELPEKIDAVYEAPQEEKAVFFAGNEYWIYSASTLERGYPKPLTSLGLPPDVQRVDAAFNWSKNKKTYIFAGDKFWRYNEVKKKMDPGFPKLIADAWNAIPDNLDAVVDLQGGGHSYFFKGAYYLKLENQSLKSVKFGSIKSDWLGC

Hexokinase HKDC1 = Hexokinase HKDC1 (Homo sapiens, UniProt Q2TB90); assay: HKDC1 hexokinase activators, dose response, biochemical, W721R variant (AID 504730); assay type: functional
Sequence of Hexokinase HKDC1 (Q2TB90 whole entry): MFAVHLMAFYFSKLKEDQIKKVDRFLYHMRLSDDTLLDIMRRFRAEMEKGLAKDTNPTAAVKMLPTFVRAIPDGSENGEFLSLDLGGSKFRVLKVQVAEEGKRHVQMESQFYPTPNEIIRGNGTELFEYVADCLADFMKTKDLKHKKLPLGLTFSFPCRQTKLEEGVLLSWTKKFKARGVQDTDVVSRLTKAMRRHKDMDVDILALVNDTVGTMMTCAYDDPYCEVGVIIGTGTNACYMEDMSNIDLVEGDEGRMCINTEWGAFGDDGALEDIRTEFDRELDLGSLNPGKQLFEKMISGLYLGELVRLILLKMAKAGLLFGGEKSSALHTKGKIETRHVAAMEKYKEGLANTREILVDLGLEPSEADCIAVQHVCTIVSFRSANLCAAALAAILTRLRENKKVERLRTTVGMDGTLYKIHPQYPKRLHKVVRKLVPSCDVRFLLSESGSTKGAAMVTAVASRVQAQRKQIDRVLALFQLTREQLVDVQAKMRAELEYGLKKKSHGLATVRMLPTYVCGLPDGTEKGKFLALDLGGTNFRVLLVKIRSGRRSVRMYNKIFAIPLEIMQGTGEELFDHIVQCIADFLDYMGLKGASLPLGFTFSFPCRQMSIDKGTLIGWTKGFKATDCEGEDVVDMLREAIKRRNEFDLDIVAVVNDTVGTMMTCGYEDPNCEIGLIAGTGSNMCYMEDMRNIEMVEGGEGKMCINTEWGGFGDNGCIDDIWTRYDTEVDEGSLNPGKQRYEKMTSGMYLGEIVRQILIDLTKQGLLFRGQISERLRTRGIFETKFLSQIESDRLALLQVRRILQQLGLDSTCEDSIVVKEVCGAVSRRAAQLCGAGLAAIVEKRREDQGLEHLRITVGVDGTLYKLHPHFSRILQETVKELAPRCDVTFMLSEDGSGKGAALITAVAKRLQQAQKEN

Prothrombin = Prothrombin (Bos taurus, UniProt P00735); assay: thrombin inhibition, dose response, biochemical, fluorescence polarization, uHTS hits (AID 602369); assay type: functional
Hexokinase-1 = Hexokinase-1 (Homo sapiens, UniProt P19367); assay: hexokinase 1 activators, dose response, selectivity assay for HKDC1 activator project, biochemical (AID 504762); assay type: functional
Sequence of Hexokinase-1 (P19367 whole entry): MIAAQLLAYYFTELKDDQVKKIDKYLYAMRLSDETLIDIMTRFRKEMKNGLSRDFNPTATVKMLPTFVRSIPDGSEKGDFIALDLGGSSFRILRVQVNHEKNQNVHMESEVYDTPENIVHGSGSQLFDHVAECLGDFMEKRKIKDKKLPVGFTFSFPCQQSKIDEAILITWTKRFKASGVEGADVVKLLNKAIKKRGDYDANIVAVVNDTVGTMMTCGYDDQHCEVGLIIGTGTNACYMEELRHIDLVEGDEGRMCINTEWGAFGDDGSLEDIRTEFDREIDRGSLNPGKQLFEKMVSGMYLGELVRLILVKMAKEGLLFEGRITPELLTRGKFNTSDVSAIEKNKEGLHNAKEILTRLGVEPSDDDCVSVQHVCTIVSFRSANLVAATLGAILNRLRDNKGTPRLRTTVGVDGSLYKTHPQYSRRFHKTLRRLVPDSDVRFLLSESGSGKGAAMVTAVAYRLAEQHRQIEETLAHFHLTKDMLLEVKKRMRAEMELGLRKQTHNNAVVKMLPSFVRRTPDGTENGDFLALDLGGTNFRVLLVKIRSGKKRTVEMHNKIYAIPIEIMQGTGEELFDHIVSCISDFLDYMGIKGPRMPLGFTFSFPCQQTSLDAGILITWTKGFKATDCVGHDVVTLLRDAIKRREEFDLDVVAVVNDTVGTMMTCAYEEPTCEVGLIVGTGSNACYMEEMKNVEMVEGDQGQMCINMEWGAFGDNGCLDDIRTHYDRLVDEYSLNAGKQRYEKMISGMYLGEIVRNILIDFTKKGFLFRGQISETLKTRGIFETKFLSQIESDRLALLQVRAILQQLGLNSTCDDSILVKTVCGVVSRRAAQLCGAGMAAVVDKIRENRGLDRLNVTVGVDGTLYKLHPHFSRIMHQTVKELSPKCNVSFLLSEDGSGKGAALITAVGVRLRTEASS

Cytochrome P450 3A4 = Cytochrome P450 3A4 (Homo sapiens, UniProt P08684);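 note: CYP3A4 tested as one member of a cytochrome P450 panel screen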
Sequence of Cytochrome P450 3A4 (P08684 whole entry): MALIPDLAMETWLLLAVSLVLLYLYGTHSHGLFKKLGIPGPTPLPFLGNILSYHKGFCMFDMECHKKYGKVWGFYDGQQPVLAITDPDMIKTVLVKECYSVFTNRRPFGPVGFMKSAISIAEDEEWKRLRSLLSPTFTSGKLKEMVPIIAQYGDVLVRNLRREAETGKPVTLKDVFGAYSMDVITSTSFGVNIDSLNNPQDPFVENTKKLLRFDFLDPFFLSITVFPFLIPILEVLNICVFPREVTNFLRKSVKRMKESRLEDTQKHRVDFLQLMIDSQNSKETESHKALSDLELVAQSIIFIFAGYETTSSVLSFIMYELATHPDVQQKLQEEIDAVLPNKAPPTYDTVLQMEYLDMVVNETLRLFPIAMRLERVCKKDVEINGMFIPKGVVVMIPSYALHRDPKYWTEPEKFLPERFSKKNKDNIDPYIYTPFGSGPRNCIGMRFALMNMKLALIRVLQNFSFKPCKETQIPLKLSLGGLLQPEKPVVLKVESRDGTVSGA

Cytochrome P450 2C9 = Cytochrome P450 2C9 (Homo sapiens, UniProt P11712)
Sequence of Cytochrome P450 2C9 (P11712 whole entry): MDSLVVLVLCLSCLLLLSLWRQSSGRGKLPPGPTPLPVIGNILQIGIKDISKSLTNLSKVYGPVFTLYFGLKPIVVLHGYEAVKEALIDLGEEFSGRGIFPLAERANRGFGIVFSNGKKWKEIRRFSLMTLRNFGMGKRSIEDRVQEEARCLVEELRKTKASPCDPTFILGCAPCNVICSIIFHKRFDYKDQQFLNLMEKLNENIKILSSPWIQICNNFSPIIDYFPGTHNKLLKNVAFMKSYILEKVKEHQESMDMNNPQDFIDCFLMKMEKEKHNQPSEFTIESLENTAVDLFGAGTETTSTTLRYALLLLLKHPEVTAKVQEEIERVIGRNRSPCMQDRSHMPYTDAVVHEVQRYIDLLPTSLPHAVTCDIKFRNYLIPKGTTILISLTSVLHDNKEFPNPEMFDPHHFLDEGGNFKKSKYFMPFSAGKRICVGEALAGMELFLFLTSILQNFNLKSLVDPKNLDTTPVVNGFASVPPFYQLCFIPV

Cytochrome P450 2C19 = Cytochrome P450 2C19 (Homo sapiens, UniProt P33261); assay: Cytochrome panel assay with activity outcomes. Panel member name: p450-cyp2c19 Compounds with AC50 equal or less than 10 uM are considered active; assay type: functional; details: read-out: AC50
Sequence of Cytochrome P450 2C19 (P33261 whole entry): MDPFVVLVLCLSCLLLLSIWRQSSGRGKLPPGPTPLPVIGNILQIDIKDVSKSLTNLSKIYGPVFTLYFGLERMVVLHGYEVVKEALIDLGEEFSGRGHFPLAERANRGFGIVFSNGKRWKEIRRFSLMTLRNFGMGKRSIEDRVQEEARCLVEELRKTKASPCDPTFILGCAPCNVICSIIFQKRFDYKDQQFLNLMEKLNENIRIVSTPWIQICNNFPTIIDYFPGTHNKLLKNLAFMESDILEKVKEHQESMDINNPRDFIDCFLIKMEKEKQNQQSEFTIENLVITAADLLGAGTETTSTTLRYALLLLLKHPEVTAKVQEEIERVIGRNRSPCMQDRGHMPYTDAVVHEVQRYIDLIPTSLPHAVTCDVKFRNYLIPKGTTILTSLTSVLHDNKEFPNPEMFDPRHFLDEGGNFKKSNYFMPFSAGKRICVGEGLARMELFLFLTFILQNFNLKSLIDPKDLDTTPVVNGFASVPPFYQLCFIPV

Cytochrome P450 1A2 = target: T1, Cytochrome P450 1A2 (Homo sapiens, UniProt P05177);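 note: PubChem cytochrome P450 panel assay, CYP1A2 panel member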
T1 sequence (P05177 whole entry): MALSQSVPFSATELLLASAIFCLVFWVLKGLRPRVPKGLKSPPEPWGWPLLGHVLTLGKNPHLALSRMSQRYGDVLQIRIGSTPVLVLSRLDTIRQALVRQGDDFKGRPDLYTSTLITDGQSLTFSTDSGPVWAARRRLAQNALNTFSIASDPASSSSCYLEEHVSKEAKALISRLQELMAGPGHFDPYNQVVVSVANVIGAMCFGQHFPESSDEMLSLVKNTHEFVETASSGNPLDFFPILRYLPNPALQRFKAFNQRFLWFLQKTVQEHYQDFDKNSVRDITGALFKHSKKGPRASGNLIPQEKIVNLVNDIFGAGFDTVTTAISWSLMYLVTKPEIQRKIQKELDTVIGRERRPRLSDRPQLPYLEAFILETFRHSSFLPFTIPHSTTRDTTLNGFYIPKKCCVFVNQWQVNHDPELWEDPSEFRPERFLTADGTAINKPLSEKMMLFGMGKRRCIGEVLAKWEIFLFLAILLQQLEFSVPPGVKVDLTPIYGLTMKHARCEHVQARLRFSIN

Escherichia coli = assay: microbe, parasite or virus in culture
Bcl-2-related protein A1 = target: T2, Bcl-2-related protein A1 (Mus musculus, UniProt Q07440); assay type: functional;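 note: confirmatory dose–response counterscreen on Bfl-1, used to check hits from a UBC13 polyubiquitin inhibitor campaign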
T2 sequence (Q07440 whole entry): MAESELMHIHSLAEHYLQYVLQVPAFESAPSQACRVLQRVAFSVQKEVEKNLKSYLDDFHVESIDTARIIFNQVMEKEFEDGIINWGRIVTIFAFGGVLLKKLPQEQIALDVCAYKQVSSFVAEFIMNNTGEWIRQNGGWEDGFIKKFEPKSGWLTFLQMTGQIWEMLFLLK

[6] = target: T3, Ubiquitin-conjugating enzyme E2 N (Homo sapiens, UniProt P61088); assay type: functional
T3 sequence (P61088 whole entry): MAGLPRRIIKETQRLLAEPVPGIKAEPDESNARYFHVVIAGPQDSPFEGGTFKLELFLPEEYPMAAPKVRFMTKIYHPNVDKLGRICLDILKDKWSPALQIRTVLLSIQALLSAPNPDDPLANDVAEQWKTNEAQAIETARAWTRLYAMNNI

[7] = target: T3, Ubiquitin-conjugating enzyme E2 N; assay type: functional; remark: listed apart in the source

EC50 [1]: > 79.4 µM (not active)
EC50 [2]: > 79.4 µM (inactive)
EC50 [3]: > 79.4 µM (not active)
Structure (SMILES): CCOC(=O)CSc1cc(=O)n(CC)c2ccccc12

IC50 [4]: 19.6 µM (active)
IC50 [5]: > 100 µM (inactive)
EC50 (Hexokinase HKDC1): 10.9 µM (active)
IC50 (Prothrombin): 49.9 µM (active)
EC50 (Hexokinase-1): 16.3 µM (active)
Structure (SMILES): COc1ccc(-c2[nH]c(-c3ccc(SC)cc3)nc2SCC(=O)Nc2nccs2)cc1

AC50 (Cytochrome P450 3A4): inconclusive
AC50 (Cytochrome P450 2C9): inconclusive
AC50 (Cytochrome P450 2C19): 39.8 µM (inconclusive)
AC50 (Cytochrome P450 1A2): 25.1 µM (inconclusive)
Structure (SMILES): Cc1cnc(CNc2cc(-c3ccccc3C(F)(F)F)ncn2)cn1

Further lines, the compound ahead of its results:

Structure (SMILES): Cc1ccc(S(=O)(=O)CCNC(=O)Cc2ccc(Cl)cc2)cc1
AC50 (Escherichia coli): 46.1 µM (active)

Structure (SMILES): CCc1ccc2c(COC(=O)C3CC(=O)N(CCc4ccccc4)C3)cc(=O)oc2c1 (configuration not stated)
AC50 (Escherichia coli): 133 µM (active)

Structure (SMILES): COCCNc1nc2c(-c3cccc(C(F)(F)F)c3)nnn2c2ccccc12
IC50 (Bcl-2-related protein A1): > 20 µM (inactive)
IC50 [6]: 10.3 µM (active)
IC50 [7]: > 20 µM (inactive)
